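Dose response: 5 concentrations. Exposure: 48 h. Format: 96-well plates. Endpoint: linear interpolation; highest concentration if not reached. Here, GI50 denotes the concentration required for 50% inhibition of growth.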 Calls of active or inactive are those of the source. Cut-off read from the data, not from the text of the source: active = GI50 up to about 1.1 µM and inactive = higher.
Tests used:
Experiment in all cases: NCI-60 cell line screen, 48 h
UACC-257 = system: UACC-257
ACHN = system: ACHN
LOX IMVI = system: LOX IMVI
NCI-H23 = system: NCI-H23
OVCAR-4 = system: OVCAR-4
NCI-H460 = system: NCI-H460
BT-549 = system: BT-549
TK-10 = system: TK-10
A549 = system: A549
786-0 = system: 786-0
OVCAR-3 = system: OVCAR-3
MCF7 = system: MCF7
UACC-62 = system: UACC-62
IGROV-1 = system: IGROV-1
T47D = system: T47D
OVCAR-8 = system: OVCAR-8
K562 = system: K562
MOLT-4 = system: MOLT-4
DU-145 = system: DU-145
A498 = system: A498

SMILES	GI50 (UACC-257)	GI50 (ACHN)	GI50 (LOX IMVI)	GI50 (NCI-H23)	GI50 (OVCAR-4)	GI50 (NCI-H460)	GI50 (BT-549)	GI50 (TK-10)	GI50 (A549)	GI50 (786-0)	GI50 (OVCAR-3)	GI50 (MCF7)	GI50 (UACC-62)	GI50 (IGROV-1)	GI50 (T47D)	GI50 (OVCAR-8)	GI50 (K562)	GI50 (MOLT-4)	GI50 (DU-145)	GI50 (A498)
C[n+]1cn(C2=C([N-]S(=O)(=O)c3ccccc3)C(=O)c3ccccc3C2=O)c2ccccc21	19.4 µM (inactive)	> 100 µM (inactive)	12.7 µM (inactive)	16 µM (inactive)	1.59 µM (inactive)	16.8 µM (inactive)	20.9 µM (inactive)	20.8 µM (inactive)	85.9 µM (inactive)	48.4 µM (inactive)	3.06 µM (inactive)	22.1 µM (inactive)	22.5 µM (inactive)	17.3 µM (inactive)	34.1 µM (inactive)	20 µM (inactive)	29.9 µM (inactive)	23.2 µM (inactive)	52.7 µM (inactive)	–
COc1cc(/C=C/C=C2\CC(C)C/C(=C\C=C\c3ccc(O)c(OC)c3)C2=O)ccc1O (configuration not stated)	20.2 µM (inactive)	4.98 µM (inactive)	12.4 µM (inactive)	12.2 µM (inactive)	4.83 µM (inactive)	14.5 µM (inactive)	8.61 µM (inactive)	3.05 µM (inactive)	5.11 µM (inactive)	12.4 µM (inactive)	10.8 µM (inactive)	5.6 µM (inactive)	11.9 µM (inactive)	8.41 µM (inactive)	7.48 µM (inactive)	11.5 µM (inactive)	3.93 µM (inactive)	0.964 µM (active)	19.5 µM (inactive)	–
COc1ccc(C(=O)N2CCN(c3ccc4c(c3)OCC(=O)N4)CC2)cc1	> 100 µM (inactive)	> 100 µM (inactive)	> 100 µM (inactive)	> 100 µM (inactive)	> 100 µM (inactive)	> 100 µM (inactive)	> 100 µM (inactive)	> 100 µM (inactive)	> 100 µM (inactive)	> 100 µM (inactive)	> 100 µM (inactive)	> 100 µM (inactive)	> 100 µM (inactive)	> 100 µM (inactive)	> 100 µM (inactive)	> 100 µM (inactive)	–	> 100 µM (inactive)	> 100 µM (inactive)	–
CC1(C23CC4CC(CC(C4)C2)C3)n2c(=O)n(-c3ccccc3)c(=O)n2C1(C)C12CC3CC(CC(C3)C1)C2 (configuration not stated)	> 100 µM (inactive)	> 100 µM (inactive)	–	> 100 µM (inactive)	–	> 100 µM (inactive)	> 100 µM (inactive)	> 100 µM (inactive)	> 100 µM (inactive)	–	> 100 µM (inactive)	> 100 µM (inactive)	> 100 µM (inactive)	> 100 µM (inactive)	> 100 µM (inactive)	> 100 µM (inactive)	> 100 µM (inactive)	> 100 µM (inactive)	> 100 µM (inactive)	> 100 µM (inactive)
NS(=O)(=O)c1ccc(NCc2cccc3c(=O)c4ccc(Cl)cc4oc23)cc1	60.4 µM (inactive)	28.4 µM (inactive)	20.9 µM (inactive)	31.5 µM (inactive)	> 95.9 µM (inactive)	–	42.5 µM (inactive)	> 72.9 µM (inactive)	> 86.1 µM (inactive)	> 58.5 µM (inactive)	54.8 µM (inactive)	8.34 µM (inactive)	23.1 µM (inactive)	20.2 µM (inactive)	81.3 µM (inactive)	24.2 µM (inactive)	12.5 µM (inactive)	19.7 µM (inactive)	30.3 µM (inactive)	> 75.3 µM (inactive)
Nc1nccc(-c2c[nH]c3cc(Br)ccc23)n1 [MERIDIANIN D]	30.2 µM (inactive)	19.8 µM (inactive)	25.3 µM (inactive)	25.2 µM (inactive)	48.9 µM (inactive)	30 µM (inactive)	31.2 µM (inactive)	22.3 µM (inactive)	15.7 µM (inactive)	21.5 µM (inactive)	28.8 µM (inactive)	19.9 µM (inactive)	22 µM (inactive)	23.7 µM (inactive)	30.4 µM (inactive)	35.7 µM (inactive)	33.5 µM (inactive)	24.7 µM (inactive)	34.5 µM (inactive)	–
COc1cc(S(=O)(=O)N/N=C/C=C/c2ccccc2)c(OC)cc1NC(C)=O	30.2 µM (inactive)	> 100 µM (inactive)	15.5 µM (inactive)	41.8 µM (inactive)	19.6 µM (inactive)	–	42.1 µM (inactive)	–	> 100 µM (inactive)	91.8 µM (inactive)	40.7 µM (inactive)	52.2 µM (inactive)	86.9 µM (inactive)	17.8 µM (inactive)	69.5 µM (inactive)	12.2 µM (inactive)	–	–	31.8 µM (inactive)	> 100 µM (inactive)
Clc1c(Cl)c(Cl)c2nn(C3CCCO3)nc2c1Cl (configuration not stated)	72.6 µM (inactive)	–	–	37.8 µM (inactive)	–	–	26.8 µM (inactive)	69.8 µM (inactive)	37.4 µM (inactive)	70.3 µM (inactive)	43 µM (inactive)	46.3 µM (inactive)	60.3 µM (inactive)	32.4 µM (inactive)	37 µM (inactive)	63.5 µM (inactive)	40.7 µM (inactive)	30.5 µM (inactive)	> 100 µM (inactive)	> 100 µM (inactive)
CCOC(=O)c1c2c(n(Cc3ccccc3)c1C)C(=O)C(=O)c1ccccc1-2	0.0989 µM (active)	0.275 µM (active)	0.174 µM (active)	0.231 µM (active)	0.0794 µM (active)	0.418 µM (active)	0.337 µM (active)	0.64 µM (active)	0.431 µM (active)	0.56 µM (active)	0.0615 µM (active)	0.293 µM (active)	0.284 µM (active)	1.15 µM (inactive)	0.579 µM (active)	0.237 µM (active)	0.122 µM (active)	0.17 µM (active)	0.465 µM (active)	–
COC(=O)CCC(NC(=O)C(C)NC(=O)COC1C(O)C(OC(=O)CCNc2c3ccccc3nc3cccc([N+](=O)[O-])c23)OC(OCc2ccccc2)C1NC(C)=O)C(N)=O (configuration not stated)	> 10 µM (inactive)	3.61 µM (inactive)	> 10 µM (inactive)	> 10 µM (inactive)	–	> 10 µM (inactive)	> 10 µM (inactive)	> 10 µM (inactive)	> 10 µM (inactive)	3.56 µM (inactive)	5.42 µM (inactive)	2.28 µM (inactive)	3.08 µM (inactive)	> 10 µM (inactive)	> 10 µM (inactive)	6.5 µM (inactive)	1.91 µM (inactive)	3 µM (inactive)	2.6 µM (inactive)	> 10 µM (inactive)
O=C(CCCN1CCC2(CC1)NC(=O)c1ccccc1O2)c1ccc(F)cc1	55.5 µM (inactive)	> 100 µM (inactive)	80 µM (inactive)	> 100 µM (inactive)	91 µM (inactive)	> 100 µM (inactive)	46.6 µM (inactive)	81.7 µM (inactive)	> 100 µM (inactive)	> 100 µM (inactive)	> 100 µM (inactive)	94.6 µM (inactive)	> 100 µM (inactive)	> 100 µM (inactive)	84.3 µM (inactive)	> 100 µM (inactive)	39.7 µM (inactive)	50.1 µM (inactive)	> 100 µM (inactive)	–
O=C(O)c1ccc(/C=N\N(CCO)C2=NCCN2)cc1	–	> 100 µM (inactive)	> 100 µM (inactive)	> 100 µM (inactive)	> 100 µM (inactive)	> 100 µM (inactive)	> 100 µM (inactive)	> 100 µM (inactive)	> 100 µM (inactive)	> 100 µM (inactive)	> 100 µM (inactive)	> 100 µM (inactive)	> 100 µM (inactive)	> 100 µM (inactive)	> 100 µM (inactive)	> 100 µM (inactive)	> 100 µM (inactive)	> 100 µM (inactive)	> 100 µM (inactive)	–
N#C/C(=C\c1ccc(Cl)cc1)c1nc(-c2cc3ccccc3oc2=O)cs1	47.6 µM (inactive)	38.2 µM (inactive)	59.6 µM (inactive)	–	33.5 µM (inactive)	42.6 µM (inactive)	14.9 µM (inactive)	26.9 µM (inactive)	86.5 µM (inactive)	30.3 µM (inactive)	–	> 100 µM (inactive)	28.9 µM (inactive)	> 100 µM (inactive)	44 µM (inactive)	49.2 µM (inactive)	> 100 µM (inactive)	> 100 µM (inactive)	48.5 µM (inactive)	–
CC(C)CC(N)C(=O)Nc1ccc2ccccc2c1 (configuration not stated)	> 100 µM (inactive)	> 100 µM (inactive)	> 100 µM (inactive)	> 100 µM (inactive)	9.4 µM (inactive)	–	> 100 µM (inactive)	> 100 µM (inactive)	> 100 µM (inactive)	> 100 µM (inactive)	8.2 µM (inactive)	> 100 µM (inactive)	> 100 µM (inactive)	> 100 µM (inactive)	> 100 µM (inactive)	> 100 µM (inactive)	> 100 µM (inactive)	> 100 µM (inactive)	> 100 µM (inactive)	> 100 µM (inactive)
CC1(C)OC(C(C)(C)O)C(C(C)(C)O)O1 (configuration not stated)	> 100 µM (inactive)	> 100 µM (inactive)	> 100 µM (inactive)	> 100 µM (inactive)	> 100 µM (inactive)	> 100 µM (inactive)	> 100 µM (inactive)	> 100 µM (inactive)	> 100 µM (inactive)	> 100 µM (inactive)	–	> 100 µM (inactive)	> 100 µM (inactive)	> 100 µM (inactive)	> 100 µM (inactive)	> 100 µM (inactive)	> 100 µM (inactive)	> 100 µM (inactive)	> 100 µM (inactive)	–
